Test system: Microdochium nivale
Assay: Microdochium nivale test (lawn)/protective
Format: in vivo
Conditions: lawn (100% Agrostis stolonifera), preventive application at 2000, 1000, 500 and 100 g/ha, inoculation 24 hours later, scoring after 5, 7, 14 and 21 days
Experimental: Microdochium Nivale Test (Lawn)/Protective
Lawn seed (100% Agrostis stolonifera) was sown in dishes of the dimensions 38 cm×15 cm×9 cm. 7 days after sowing, the lawn was cut prior to preventive guanidinium hydroxide application at application rates of 2000, 1000, 500 and 100 g/ha. The water application rates were 1000 l/ha (converted). 24 hours after the preventive application of the active compound, the lawn was inoculated by placing of wheat grains infected with Microdochium nivale. In each case 3 wheat grains were placed into a single dish. Scoring of the subsequent fungal growth in the lawn dishes was carried out after 5, 7, 14 and 21 days. In the dishes which had been treated with guanidinium hydroxide, an inhibition of the growth of Microdochium nivale of up to 30% (Abbott) was observed.

SMILES: N=C(N)N.O [guanidinium hydroxide]
- inhibition of the growth of Microdochium nivale (Abbott): up to 30%

From patent publication US20110294855A1, “Active Compound Combinations” (BAYER CROPSCIENCE AG, priority 2009, published 2011)
